Where two headings read alike, the source gives them in different places. Where only a bound is given, the exact number is not on record here.

Holding throughout (type): cell-based
For data set [1], the system named is Severe Acute Respiratory Syndrome Coronavirus Type 2. Kind of data set: microbe, parasite or virus in culture. The settings on record: Vero, read-out: Virus replication inhibition efficacy.
Data set [2] has the same test system. Kind of data set: microbe, parasite or virus in culture. The conditions noted are these: read-out: Virus replication inhibition efficacy.
Data set [3] can be described thus: Cell viability measurement (MTS), Vero cells. The settings on record: monkey. As to the method:
(§1) Experimental Example 3: Cell Viability Measurement
(§2) Vero cell line (VERO01WCB-1201, Ministry of Food and Drug Safety, Republic of Korea), Calu-3 cell line (KCLB #30055, Korea Cell Line Bank (KCLB), Republic of Korea), CellTiter 96® AQueous One Solution Cell Proliferation Assay kit (Promega, cat. #G3582), and Infinite M200 microplate reader (Tecan).
Vero cells were cultured at 37 °C and 5% CO2 in DMEM medium supplemented with 10% fetal bovine serum, 100 units/mL penicillin, and 100 μg/mL streptomycin.
(§3) Vero cells or Calu-3 cells were seeded in 96-well microplates and cultured for 24 hours until the cell confluency reached 20%. After the incubation, compounds were treated in DMSO at concentrations (1, 3, and 10 μM) to reach 0.5% v/v in each well, and reacted at 37 °C for 48 hours. Into each well of the incubated 96-well microplate, 3-(4,5-dimethylthiazol-2-yl)-5-(3-carboxymethoxyphenyl)-2-(4-sulfophenyl)-2H-tetrazolium salt (MTS) assay solution [CellTiter 96® AQueous One Solution Cell Proliferation Assay kit (Promega)] mixed with DMEM medium at a ratio of 1:5, was dispensed at 100 μL/well and incubated at 37 °C for 1 hour. The 490 nm and 690 nm absorbance was then measured using an Infinite M200 instrument.
(§4) The cell viability (also, referred to as cell survival rate) (%) by compound treatment was calculated using the following analysis method. The 690 nm background absorbance value was subtracted from the measured 490 nm absorbance value. Then, to obtain the cell viability of each test group, the viability of the DMSO-treated group that was not treated with the compound was set to 100% and then the relative viability 1 of each compound was calculated. Two to six repeated tests were performed to obtain the results, and the mean values of the results were categorized into the following ranges and shown in Table 5 below (A: 80% survived, B: 50-80% survived, N/A: not tested)

A short description of data set [4]: Cell viability measurement (MTS), Calu-3 cells. The settings on record: human. As to the method:
as §1, §2
Calu-3 cells were cultured at 37 °C and 5% CO2 in MEM medium supplemented with 10% fetal bovine serum, 2.2 g/L sodium bicarbonate, 1% 100 units/mL penicillin, and 100 μg/mL streptomycin.
as §3, §4

The mark [5] stands for this setting: 10 uM, virus strain NCCP-43388, 48 hours.
The mark [6] stands for this setting: Calu-3, 10 uM, virus strain NCCP-43388, 48 hours.
[7] abbreviates: 10 uM, virus strain NCCP-43344, 48 hours.
The mark [8] stands for this setting: Calu-3, 10 uM, virus strain NCCP-43344, 48 hours.

As to `O=[N+]([O-])c1ccc2nc(-c3cccc(Nc4ccc(-c5cccnn5)cc4)c3)[nH]c2c1` [Example 227, 3-(6-nitro-1H-benzo[d]imidazol-2-yl)-N-(4-(pyridazin-3-yl)phenyl)aniline], the values for the inhibition at 10 µM in data set [1] (setting [5]) and in data set [2] (setting [6]) were 30 to 60% and more than 60%, respectively.
For `c1cc(Nc2ncc(-c3ncco3)cn2)cc(-c2nc3ccccc3[nH]2)c1` [Example 171, N-[3-(1H-benzo[d]imidazol-2-yl)phenyl]-5-oxazol-2-yl-pyrimidin-2-amine], in that order: more than 60% and more than 60%.
Regarding `c1cc(Nc2ccc(-c3cnccn3)cc2)cc(-c2nc3ccccc3[nH]2)c1` [Example 32, 3-(1H-benzo[d]imidazol-2-yl)-N-(4-(pyrazin-2-yl)phenyl)aniline], in data set [3], the viability (as a rule, a per cent measure of how many cells are alive, often set against a control) at 48 h, 1 µM was more than 80%; the viability at 48 h, 3 µM was more than 80%; the viability at 48 h, 10 µM was 50 to 80%. In data set [4], this compound registered a viability at 48 h, 1 µM of more than 80% and a viability at 48 h, 3 µM of 50 to 80%. In data set [2] (setting [6]), the inhibition (in general, the share of the control response that was lost under treatment) at 10 µM is more than 60%.
Take `Clc1ccc2nc(-c3cccc(Nc4ccc(-c5cccnn5)cc4)c3)[nH]c2c1` [Example 226, 3-(6-chloro-1H-benzo[d]imidazol-2-yl)-N-(4-(pyridazin-3-yl)phenyl)aniline]: the inhibition at 10 µM in data set [1] (setting [5]) and in data set [2] (setting [6]) was more than 60% in each case.
For the compound `c1cc(Nc2ncc(-c3ccncn3)cn2)cc(-c2nc3ccccc3[nH]2)c1` [Example 76, N-[3-(1H-benzo[d]imidazol-2-yl)phenyl]-[4,5′-bipyrimidin]-2′-amine], the inhibition at 10 µM in data set [1] (setting [5]) and in data set [2] (setting [6]) was 30 to 60% throughout.
With `FC(F)(F)Oc1cc2[nH]c(-c3cccc(Nc4ccc(-c5cccnn5)cc4)c3)nc2cn1` [Example 232, N-(4-(pyridazin-3-yl)phenyl)-3-(6-(trifluoromethoxy)-1H-imidazo[4,5-c]pyridin-2-yl)aniline], the inhibition at 10 µM in data set [1] (48 h) was 30 to 60%; in data set [2] (Calu-3, 48 h), more than 60%.
In data set [3], `Clc1cc2nc(-c3cccc(Nc4ccc(-c5ccccc5)nn4)c3)[nH]c2cc1Cl` [Example 7, N-(3-(5,6-dichloro-1H-benzo[d]imidazol-2-yl)phenyl)-6-phenylpyridazin-3-amine] registered a viability at 48 h, 1 µM of more than 80% and a viability at 48 h, 3 µM of more than 80%. In data set [1] (setting [7]), the inhibition at 10 µM fell in the range of 30 to 60%. The inhibition at 10 µM in data set [2] (setting [8]) is 30 to 60%.
In data set [3], `Fc1ccc2nc(-c3cccc(Nc4ncc(-c5ccccn5)cn4)c3)[nH]c2c1` [Example 45, N-[3-(6-fluoro-1H-benzo[d]imidazol-2-yl)phenyl]-5-(pyridin-2-yl)pyrimidin-2-amine] gave a viability at 48 h, 3 µM of more than 80% and a viability at 48 h, 10 µM of 50 to 80%. For the same compound, the viability at 48 h, 1 µM in data set [4] was 50 to 80%. For the same compound, the inhibition at 10 µM in data set [2] (setting [6]) lay in the range of 30 to 60%.
Regarding `Fc1cccc(-c2cnc(Nc3cccc(-c4nc5ccccc5[nH]4)c3)nc2)n1` [Example 259, N-(3-(1H-benzo[d]imidazol-2-yl)phenyl)-5-(6-fluoropyridin-2-yl)pyrimidin-2-amine], the inhibition at 10 µM in data set [1] (setting [5]) and in data set [2] (setting [6]) was more than 60% in each case.
In data set [3], `Clc1cc2nc(-c3cccc(Nc4ccc(-c5ccccc5)cn4)c3)[nH]c2cc1Cl` [Example 13, N-[3-(5,6-dichloro-1H-benzo[d]imidazol-2-yl)phenyl]-5-phenylpyridin-2-amine] came in with a viability at 48 h, 1 µM of more than 80%; a viability at 48 h, 3 µM of more than 80%; a viability at 48 h, 10 µM of 50 to 80%. Besides, the inhibition at 10 µM in data set [2] (setting [8]) is more than 60%.
`c1cc(Nc2ncc(-c3ccsc3)cn2)cc(-c2nc3ccccc3[nH]2)c1` [Example 164, N-[3-(1H-benzo[d]imidazol-2-yl)phenyl]-5-(3-thienyl)pyrimidin-2-amine]: the inhibition at 10 µM in data set [1] (setting [5]) and in data set [2] (setting [6]) was more than 60% each time.
Regarding `Fc1cccc(-c2cnc(Nc3cccc(-c4nc5ccc(C(F)(F)F)cc5[nH]4)c3)nc2)n1` [Example 258, 5-(6-fluoropyridin-2-yl)-N-(3-(6-(trifluoromethyl)-1H-benzo[d]imidazol-2-yl)phenyl)pyrimidin-2-amine], in data set [1] (setting [5]), the inhibition at 10 µM fell in the range of 30 to 60%.
Turning to `c1ccc(-c2cnc(Nc3cccc(-c4nc5ccccc5[nH]4)c3)nc2)nc1` [Example 44, N-(3-(1H-benzo[d]imidazol-2-yl)phenyl)-5-(pyridin-2-yl)pyrimidin-2-amine], in data set [4], the viability at 48 h, 1 µM is more than 80% and the viability at 48 h, 3 µM fell in the range of 50 to 80%. Also, in data set [2] (setting [6]), the inhibition at 10 µM is more than 60%.
For `Fc1cc2[nH]c(-c3cccc(Nc4ccc(-c5cccnn5)cc4)c3)nc2cc1Cl` [Example 102, 3-(5-chloro-6-fluoro-1H-benzo[d]imidazol-2-yl)-N-(4-pyridazin-3-ylphenyl)aniline], in data set [4], the viability at 48 h, 1 µM was more than 80%; the viability at 48 h, 3 µM was more than 80%; the viability at 48 h, 10 µM was in the range of 50 to 80%. Also, the inhibition at 10 µM in data set [1] (setting [5]) was more than 60%. Further, the inhibition at 10 µM in data set [2] (setting [6]) was more than 60%.
As for `Cc1ccc2nc(-c3cccc(Nc4ccc(-c5cccnn5)cc4)c3)[nH]c2c1` [Example 105, 3-(6-methyl-1H-benzo[d]imidazol-2-yl)-N-(4-pyridazin-3-ylphenyl)aniline], in data set [4], the viability at 48 h, 1 µM was more than 80%; the viability at 48 h, 3 µM lay in the range of 50 to 80%; the viability at 48 h, 10 µM is 50 to 80%. The inhibition at 10 µM in data set [1] (setting [5]) is more than 60%. Also, the inhibition at 10 µM in data set [2] (setting [6]) is more than 60%.
Regarding `FC(F)(F)c1ccc2nc(-c3cccc(Nc4ncc(-c5ccccn5)cn4)c3)[nH]c2c1` [Example 83, 5-(2-pyridyl)-N-[3-[6-(trifluoromethyl)-1H-benzo[d]imidazol-2-yl]phenyl]pyrimidin-2-amine], in data set [4], the viability at 48 h, 1 µM is more than 80%; the viability at 48 h, 3 µM is more than 80%; the viability at 48 h, 10 µM was more than 80%. Moreover, the inhibition at 10 µM in data set [1] (setting [5]) is 30 to 60%. Moreover, the inhibition at 10 µM in data set [2] (setting [6]) lay within 30 to 60%.
In data set [3], `c1cc(Nc2ccc(-c3cncnc3)cc2)cc(-c2nc3ccccc3[nH]2)c1` [Example 30, 3-(1H-benzo[d]imidazol-2-yl)-N-(4-(pyrimidin-5-yl)phenyl)aniline] came in with a viability at 48 h, 1 µM of more than 80% and a viability at 48 h, 3 µM of 50 to 80%. The compound also had a viability at 48 h, 1 µM in data set [4] of 50 to 80%. For the same compound, the inhibition at 10 µM in data set [2] (setting [6]) is more than 60%.
For `FC(F)(F)c1cc2nc(-c3cccc(Nc4ccc(-c5ccccc5)nn4)c3)[nH]c2cc1Br` [Example 9, N-{3-[6-bromo-5-(trifluoromethyl)-1H-benzo[d]imidazol-2-yl]phenyl}-6-phenylpyridazin-3-amine], in data set [3], the viability at 48 h, 1 µM is more than 80% and the viability at 48 h, 3 µM is 50 to 80%. Moreover, the inhibition at 10 µM in data set [1] (setting [7]) was in the range of 30 to 60%.
For `Fc1ccc2nc(-c3cccc(Nc4ccc(-c5cccnn5)cc4)c3)[nH]c2c1` [Example 25, 3-(6-fluoro-1H-benzo[d]imidazol-2-yl)-N-(4-(pyridazin-3-yl)phenyl)aniline], in data set [3], the viability at 48 h, 1 µM is more than 80%; the viability at 48 h, 3 µM was more than 80%; the viability at 48 h, 10 µM is more than 80%. Further, the inhibition at 10 µM in data set [2] (setting [8]) is more than 60%.
Take `Fc1cc2nc(-c3cccc(Nc4cnc(-c5ccccn5)cn4)c3)[nH]c2cc1F` [Example 298, N-(3-(5,6-difluoro-1H-benzo[d]imidazol-2-yl)phenyl)-5-(pyridin-2-yl)pyrazin-2-amine]: the inhibition at 10 µM in data set [2] (setting [6]) was 30 to 60%.
As to `Cc1noc(-c2ccc3nc(-c4cccc(Nc5ccc(-c6cccnn6)cc5)c4)[nH]c3c2)n1` [Example 93, 3-(6-(3-methyl-1,2,4-oxadiazol-5-yl)-1H-benzo[d]imidazol-2-yl)-N-(4-(pyridazin-3-yl)phenyl)aniline], in data set [4], the viability at 48 h, 1 µM is more than 80%; the viability at 48 h, 3 µM is more than 80%; the viability at 48 h, 10 µM is more than 80%. Besides, the inhibition at 10 µM in data set [1] (setting [5]) fell in the range of 30 to 60%. Besides, the inhibition at 10 µM in data set [2] (setting [6]) is more than 60%.
For the compound `N#Cc1ccc2nc(-c3cccc(Nc4ccc(-c5cccnn5)cc4)c3)[nH]c2c1` [Example 231, 2-(3-((4-(pyridazin-3-yl)phenyl)amino)phenyl)-1H-benzo[d]imidazole-6-carbonitrile], the inhibition at 10 µM in data set [1] (setting [5]) and in data set [2] (setting [6]) was more than 60% each time.
